“And” between values parts separate entries of the source, which are not always exact repeats. Identical values can stand only once.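 Where inhibition never reached the appropriate level, the endpoint shown equals the highest concentration tested. Otherwise, values were interpolated linearly from a five-concentration, 48-hour dose response in 96-well plates. GI50 is the concentration that inhibits growth by half. TGI is the concentration that stops growth completely.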
Assays:
Assay in all cases: NCI tumour cell line growth inhibition, 48 h
A549 NSCLC = tested on: A549 NSCLC
EKVX NSCLC = tested on: EKVX NSCLC
HCC-2998 colon = tested on: HCC-2998 colon
HOP-62 NSCLC = tested on: HOP-62 NSCLC
MDA-MB-435 = tested on: MDA-MB-435
NCI-H23 lung = tested on: NCI-H23 lung
OVCAR-5 ovarian = tested on: OVCAR-5 ovarian
OVCAR-8 ovarian = tested on: OVCAR-8 ovarian
SN12C renal = tested on: SN12C renal
UACC-62 melanoma = tested on: UACC-62 melanoma

| SMILES | GI50 (A549 NSCLC) | TGI (A549 NSCLC) | GI50 (EKVX NSCLC) | TGI (EKVX NSCLC) | GI50 (HCC-2998 colon) | TGI (HCC-2998 colon) | GI50 (HOP-62 NSCLC) | TGI (HOP-62 NSCLC) | GI50 (MDA-MB-435) | TGI (MDA-MB-435) [µM] | GI50 (NCI-H23 lung) | TGI (NCI-H23 lung) | GI50 (OVCAR-5 ovarian) | TGI (OVCAR-5 ovarian) [µM] | GI50 (OVCAR-8 ovarian) | TGI (OVCAR-8 ovarian) | GI50 (SN12C renal) | TGI (SN12C renal) | TGI (UACC-62 melanoma) | GI50 (UACC-62 melanoma) [µM] |
| --- | --- | --- | --- | --- | --- | --- | --- | --- | --- | --- | --- | --- | --- | --- | --- | --- | --- | --- | --- | --- |
| CS(=O)(=O)N1CCN(Cc2cc3nc(-c4cccc5[nH]ncc45)nc(N4CCOCC4)c3s2)CC1 | 0.477 µM and 0.43 µM | 3.71 µM and > 5.34 µM | 0.445 µM and 0.577 µM | > 100 µM | 0.614 µM and 0.153 µM | > 100 µM | 0.655 µM and 0.573 µM | > 100 µM | 0.728 µM and 0.276 µM | > 100 | 1.37 µM and 0.603 µM | > 100 µM | 0.357 µM and 0.234 µM | > 100 | 0.789 µM and 0.594 µM | > 100 µM | 0.493 µM and 0.224 µM | > 100 µM | 0.244 µM | – |
| O=S(=O)(O)c1ccc(Cl)cc1.[Cd] | > 100 µM | > 100 µM | 80.6 µM | > 100 µM | > 100 µM | > 100 µM | > 100 µM | > 100 µM | 20.5 µM | 63 | 23.2 µM | 82.3 µM | > 100 µM | > 100 | > 100 µM | > 100 µM | > 100 µM | > 100 µM | 28 µM | 13.8 |
| COc1ccc2c(CC(=O)O)cc(=O)oc2c1 | – | > 100 µM | – | > 100 µM | – | > 100 µM | – | > 100 µM | – | > 100 | – | > 100 µM | – | > 100 | – | > 100 µM | – | > 100 µM | > 100 µM | – |
| NC(=O)c1nnn(Cc2cc(Cl)c(C(=O)c3ccc(Cl)cc3)c(Cl)c2)c1N | > 9.09 µM | > 9.09 µM and 37.1 µM | > 9.09 µM | > 9.09 µM and 37.5 µM | 6.15 µM | > 9.09 µM and 17.9 µM | > 9.09 µM | > 9.09 µM and 41.1 µM | – | > 40.7 | > 9.09 µM | > 9.09 µM and 43 µM | > 9.09 µM | > 53.4 | > 9.09 µM | > 9.09 µM and 40.8 µM | > 9.09 µM | > 9.09 µM and 46.8 µM | > 9.09 µM and 36.4 µM | > 9.09 |

Source: PubChem BioAssay (NCI)
